Test results from US20140349989A1, “COMPOUNDS AND THERAPEUTIC USES THEREOF” (Alzheimer's Institute of America, priority 2011, published 2014).

experiment: Cytotoxicity Assay (HCT116, CellTiter-Glo); format: cell-based; conditions: human, HCT116 cell cytotoxicity IC50
Method: HCT116 cells were seeded in 96 well plates (Greiner Bio-One, Monroe, N.C.) and allowed to settle overnight. Test compound dissolved in dimethyl sulfoxide (DMSO) was added and drug incubation proceeded for 72 hours. When applicable, a 1000× solution of nicotinic acid (NA; Sigma-Aldrich, St. Louis, Mo.) dissolved in water was generated, and 1×NA (10 μM final concentration) was added at the same time as the test compound. After 72 hour, 50 μL of CellTiter-Glo Luminescent Cell Viability Assay reagent (Promega Corporation, Madison, Wis.) was added to cells in 200 μL of cellular media. After a proscribed incubation period, luminescence was measured using a TopCount NXT plate reader (PerkinElmer, Waltham, Mass.).

Compound | IC50 at 72 h [nM]
CC(C)(C)OC(=O)N1CCC(n2cc(C#CCCCNC(=O)NCc3cccnc3)c3ccccc32)CC1 [Compound 41, tert-Butyl 4-[3-(5-{[(pyridin-3-ylmethyl)carbamoyl]ami-no}pent-1-yn-1-yl)-1H-indol-1-yl]piperidine-1-carboxylate] | ≥ 100
O=C(NCCCCCCc1c[nH]c2ccccc12)NCc1cccnc1 [Compound 89, 1-[6-(1H-Indol-3-yl)hexyl]-3-(pyridin-3-ylmethyl)urea] | ≥ 100
O=C(NCc1cccnc1)Nc1ccc(N2CC3(CCNCC3)c3ccccc32)cc1 [Compound 80, 1-(Pyridin-3-ylmethyl)-3-[4-(spiro[indole-3,4′-piperidin]-1(2H)-yl)phenyl]urea] | < 100
CC(C)(C)OC(=O)N1CC(N2CC(CCCCCCNC(=O)NCc3cccnc3)c3ccccc32)C1 (centres unmarked) [Compound 121, tert-Butyl 3-[3-(6-{[(pyridin-3-yl-methyl)carbamoyl]amino}hexyl)-2,3-dihydro-1H-indol-1-yl]azetidine-1-carboxylate] | < 100
Cc1c(Cc2ccc(F)cc2)c(C(=O)N2CCC(N3CCCCC3)CC2)nn1-c1ccc(NC(=O)NCc2cccnc2)cc1 [Compound 81, 1-{4-[3-(1,4′-Bipiperidin-1′-ylcarbonyl)-4-(4-fluorobenzyl)-5-methyl-1H-pyrazol-1-yl]phenyl}-3-(pyridin-3-ylmethyl)urea] | ≥ 100
O=C(NCc1cccnc1)Nc1ccc(N2CC3(CCN(C4CCOCC4)CC3)c3ccccc32)nc1 [Compound 130] | < 100
O=C(NCc1ccc(Cl)nc1)Nc1ccc(-n2cc(CCN3CCOCC3)c3ccccc32)cc1 [Compound 128, 1-[(6-Chloro-pyridin-3-yl)methyl]-3-(4-{3-[2-(morpholin-4-yl)ethyl]-1H-indol-1-yl}phenyl)urea] | < 100

same assay, conditions: human, HCT116 cells, 72 hours drug incubation, CellTiter-Glo luminescence; read-out: HCT116 cell cytotoxicity IC50

Compound | IC50 at 72 h [nM]
COC(=O)c1cn(Cc2ccccc2)c2cc(NC(=O)NCc3cccnc3)ccc12 [Compound 83, Methyl 1-benzyl-6-{[(pyridin-3-ylmethyl)carbamoyl]ami-no}-1H-indole-3-carboxylate] | ≥ 100
CN1CCC(c2cn(-c3ccc(NC(=O)NCc4cccnc4)cc3)c3ccccc23)CC1 [Compound 111, 1-{4-[3-(1-Methylpiperidin-4-yl)-1H-indol-1-yl]phenyl}-3-(pyridin-3-ylmethyl)urea] | < 100
O=C(NCc1cccnc1)Nc1ccc(-n2cc(C3CCN(C4CCCC4)CC3)c3ccccc32)cc1 [Compound 110, 1-{4-[3-(1-Cyclopentyl-piperidin-4-yl)-1H-indol-1-yl]phenyl}-3-(pyridin-3-ylmethyl)urea] | < 100
CCN(CC)CCc1cn(-c2ccc(/C=C/C(=O)NCc3cccnc3)cc2)c2ccccc12 [Compound 162, (2E)-3-(4-{3-[2-(Diethylamio)ethyl]-1H-indol-1-yl}phenyl)-N-(pyridin-3-ylmethyl)prop-2-enamide] | < 100
O=C(NCc1cccnc1)Nc1ccc(-n2c(Cl)c(C(=O)N3CCN(C4CCCCC4)CC3)c3ccccc32)cc1 [Compound 70, 1-(4-{2-Chloro-3-[(4-cyclohexyl-piperazin-1-yl)carbonyl]-1H-indol-1-yl}phenyl)-3-(pyridin-3-ylmethyl)urea] | < 100
COc1cccc(-c2cn(-c3ccc(NC(=O)NCc4cccnc4)cc3)nc2C(=O)NCCCN2CCCCC2)c1 [Compound 54, 4-(3-Methoxyphenyl)-N-[3-(piperidin-1-yl)propyl]-1-(4-{[(pyridin-3-ylmethyl)carbamoyl]ami-no}phenyl)-1H-pyrazole-3-carboxamide] | < 100
O=C(NCc1cccnc1)Nc1ccc2c(c1)c(C(=O)NCCCN1CCCCC1)cn2Cc1ccccc1 [Compound 96, 1-Benzyl-N-[3-(piperidin-1-yl)propyl]-5-{[(pyridin-3-yl-methyl)carbamoyl]amino}-1H-indole-3-carboxamide] | ≥ 100
C[C@H](O)C(=O)N1CCC2(CC1)CN(c1ccc(NC(=O)NCc3cccnc3)cc1)c1ccccc12 [Compound 71, 1-(4-{1′-[(2S)-2-Hydroxypropanoyl]spiro[indole-3,4′-piperidin]-1(2H)-yl}phenyl)-3-(pyridin-3-ylmethyl) urea] | < 100
Cc1c(C(=O)N2CCC(O)CC2)c2ccccc2n1-c1ccc(NC(=O)NCc2cccnc2)cc1 [Compound 108, 1-(4-{3-[(4-Hydroxypiperidin-1-yl)carbonyl]-2-methyl-1H-indol-1-yl}phenyl)-3-(pyridin-3-yl-methyl)urea] | < 100
O=C(/C=C/c1ccc(-n2nc(C(=O)N3CCC(N4CCOCC4)C3)c3ccccc32)cc1)NCc1cccnc1 (centres unmarked) [Compound 170, (2E)-3-[4-(3-{[3-(Morpholin-4-yl)pyrrolidin-1-yl]carbonyl}-1H-indazol-1-yl)phenyl]-N-(pyridin-3-ylmethyl)prop-2-enamide] | < 100
O=C(NCc1cccnc1)Nc1ccc(-n2cc(C3CCN(CC(F)F)CC3)c3ccccc32)cc1 [Compound 40, 1-(4-{3-[1-(2,2-Difluoroethyl)piperidin-4-yl]-1H-indol-1-yl}phenyl)-3-(pyridin-3-ylmethyl)urea] | < 100
O=C(NCCCCCn1cc(C(=O)N2CCC(N3CCCCC3)CC2)c2ccccc21)NCc1cccnc1 [Compound 31, 1-{5-[3-(1,4′-Bipiperidin-1′-yl-carbonyl)-1H-indol-1-yl]pentyl}-3-(pyridin-3-ylmethyl)urea] | < 100
CCOC(=O)c1cn(CCCNC(=O)NCc2cccnc2)c2ccccc12 [Compound 106, Ethyl 1-(3-{[(pyridin-3-ylmethyl)carbamoyl]ami-no}propyl)-1H-indole-3-carboxylate] | ≥ 100
CN(C)CC(=O)N1CCC2(CC1)CN(c1ccc(NC(=O)NCc3cccnc3)cc1)c1ccccc12 [Compound 112, 1-{4-[1′-(N,N-Dimethylglycyl)spiro[indole-3,4′-piperidin]-1(2H)-yl]phenyl}-3-(pyridin-3-ylmethyl)urea] | < 100
O=C(NCc1cccnc1)Nc1ccc(-n2cc(CCN3CC[C@@H](F)C3)c3ccccc32)cc1 [Compound 38, 1-[4-(3-{2-[(3R)-3-Fluoropyrrolidin-1-yl]ethyl}-1H-indol-1-yl)phenyl]-3-(pyridin-3-ylmethyl)urea] | < 100
O=C(NCc1cccnc1)Nc1ccc(-n2cc(C(=O)N3CCN(C4CCCCC4)CC3)c3ccccc32)c(Cl)c1 [Compound 92, 1-(3-Chloro-4-{3-[(4-cyclohexyl-piperazin-1-yl)carbonyl]-1H-indol-1-yl}phenyl)-3-(pyridin-3-ylmethyl)urea] | < 100
O=C(NCc1cccnc1)Nc1ccc(-n2cc(C(=O)N3CCC(N4CCC(F)(F)CC4)CC3)c3ccccc32)c(Cl)c1 [Compound 107, 1-(3-Chloro-4-{3-[(4,4-difluoro-1,4′-bipiperidin-1′-yl)carbonyl]-1H-indol-1-yl}phenyl)-3-(pyridin-3-ylmethyl)urea] | < 100
CN(C)C1CN(C(=O)c2nn(-c3ccc(/C=C/C(=O)NCc4cccnc4)cc3)c3ccccc23)C1 [Compound 165, (2E)-3-[4-(3-{[3-(Dimethylamino)azetidin-1-yl]carbonyl}-1H-indazol-1-yl)phenyl]-N-(pyridin-3-ylmethyl)prop-2-enamide] | < 100
CC(C)(CCCCNC(=O)NCc1cccnc1)n1cc(C(=O)N2CCN(C3CCCCC3)CC2)c2ccccc21 [Compound 67, 1-(5-{3-[(4-Cyclohexyl-piperazin-1-yl)carbonyl]-1H-indol-1-yl}-5-methylhexyl)-3-(pyridin-3-ylmethyl)urea] | < 100
